Experimental data as given in patent US20110053947A1, “Arylchalcogenoarylalkyl-substituted imidazolidine-2,4-diones, process for preparation thereof, medicaments comprising these compounds and use thereof” (SANOFI-AVENTIS, priority 2008, published 2011).
Where two headings read alike, the source gives them in different places.

Experiments:
[1] = target: T1, CHO-K1/cannabinoid CB1 (hCB1R) (Homo sapiens, UniProt P21554); assay: Binding to the CB1 receptor ([3H]-SR141716A displacement)
T1 construct: expressed in transfected cells; host or cells: CHO-K1
Procedure: Binding to the CB 1 Receptor:
Test compounds: The compounds (3 μl, 10 mM, 100% DMSO), pipetted into 96-well PP microtiter plates, were diluted with 27 μl of 100% DMSO (dimethyl sulfoxide). Proceeding from this solution, further 3-fold dilution steps were undertaken by transferring 10 μl in each case to a new PP microtiter plate and adding a further 20 μl of 100% DMSO. In each case 6 μA of these solutions were transferred into new 96-well PP microtiter plates and made up with 144 μl of assay buffer. The end concentrations ranged from 10 μM to 0.005 μM. Negative control: AM 251, dissolved in assay buffer with 1% DMSO, was added to the dilution series in the microtiter plates as a control. The end concentration was 1 μM. Blank control: assay buffer with 1% DMSO was added to the dilution series of the microtiter plates as a blank control.
Summary of the Assay Parameters:
The values were calculated using the corrected raw data.
The values reported were obtained as average values of a double determination. The IC50 values were calculated from the measurements with the program Xlfit, formula 205. Ki values were obtained from the IC50 and Kd values utilizing the Cheng-Prusoff equation: […]
Literature: Cheng, Y.-C., and Prusoff, W. H. (1973) Biochem. Pharmacol 22, 3099-3108 Results: Ki values of example compounds; Table 2: […]

[2] = target: T2, cannabinoid 1 receptor (hCB1R) (Homo sapiens, UniProt P21554); assay: In vitro functional assay with recombinant cells (FLIPR), CB1; type: cell-based; details: intracellular Ca2+ change after reference agonist, 20 min preincubation
T2 construct: expressed in transfected cells; host or cells: HEK293
Procedure: (§1) In vitro functional assays with recombinant cells:
(§2) Function-testing assays were performed by means of the FLIPR technique (“Fluorometric Imaging Plate Reader”, Molecular Devices Corp.).
(§3) To this end, ligand-induced changes in the intracellular concentration of Ca^2+ in recombinant HEK293 cells, which expressed both a cannabinoid receptor (CB1 or CB2) and G-protein Galphal6, were determined. For the studies, cells were sown into 96-well microtiter plates (60 000 cells/well) and left to grow overnight. The medium was removed and the cells were incubated in buffer which contained the fluorescent dye Fluo-4. After this loading with dye, the cells were washed, test substance was added dissolved in buffer, the mixture was incubated for 20 minutes, a known cannabinoid receptor agonist as a reference agonist was added in buffer and, finally, the changes in the intracellular Ca^2+ concentration were measured in the FLIPR unit.
Results were presented as the percentage change relative to the control (0%: analogous experiment without test substance and without reference agonist, i.e. only with buffer; 100%: analogous experiment without test substance, but with reference agonist in excess), and used to calculate dose/action curves, and IC50 values were determined.
The values of the functional assay compared to the cannabinoid 1 receptor including illustrative selectivities compared to the cannabinoid 2 receptor can be taken from table 1 which follows.

[3] = target: T3, cannabinoid 2 receptor (hCB2R) (Homo sapiens, UniProt P34972); assay: In vitro functional assay with recombinant cells (FLIPR), CB2; type: cell-based
T3 construct: expressed in transfected cells; host or cells: HEK293
Procedure: as §1, §2, §3

[4] = target: T4, cannabinoid CB1 receptor (CB1) (Mus musculus, UniProt P47746); assay: Antagonization of CB1-mediated hypothermia; type: in vivo; details: female NMRI mice; 1.25 mg/kg intraperitoneally; within 30 min
T4 construct: from tissue; host or cells: whole animal (female NMRI mice)
Procedure: “Antagonization of CB 1-mediated Hypothermia”
The test is used to measure the potency of cannabinoid CB1 receptor (CB1) antagonists. What is measured is the extent to which the CB1 antagonists to be tested are capable of preventing or of antagonizing hypothermia induced by a CB1 agonist.
Female NMRI mice, 25-35 g in weight, are used. The mice are accustomed to the housing conditions for at least one week.
At time 0 min, the animals are treated orally, intravenously or intraperitoneally with the CB1 antagonist to be tested. 30 min later, the CB1 agonist CP55.940, 1.25 mg/kg, is administered to the mice intraperitoneally. This brings about a fall in the body temperature by 5-6° C. within 30 min. The body temperature is measured rectally for the first time 30 min before the test substance administration and then every 30 min after this administration, if appropriate immediately before a substance administration, over 4 hours.
The potency of the test substances is reported as the percentage decrease in the area under the temperature-time curve which is formed firstly by the average basal temperature, and secondly by the temperature-time curve, of the animals treated exclusively with the CB1 antagonist.

[5] = recombinant HEK293 cells expressing CB1 and G-protein, read-out: hCB1R: FLIPR, IC50

T2 sequence (P21554 whole entry): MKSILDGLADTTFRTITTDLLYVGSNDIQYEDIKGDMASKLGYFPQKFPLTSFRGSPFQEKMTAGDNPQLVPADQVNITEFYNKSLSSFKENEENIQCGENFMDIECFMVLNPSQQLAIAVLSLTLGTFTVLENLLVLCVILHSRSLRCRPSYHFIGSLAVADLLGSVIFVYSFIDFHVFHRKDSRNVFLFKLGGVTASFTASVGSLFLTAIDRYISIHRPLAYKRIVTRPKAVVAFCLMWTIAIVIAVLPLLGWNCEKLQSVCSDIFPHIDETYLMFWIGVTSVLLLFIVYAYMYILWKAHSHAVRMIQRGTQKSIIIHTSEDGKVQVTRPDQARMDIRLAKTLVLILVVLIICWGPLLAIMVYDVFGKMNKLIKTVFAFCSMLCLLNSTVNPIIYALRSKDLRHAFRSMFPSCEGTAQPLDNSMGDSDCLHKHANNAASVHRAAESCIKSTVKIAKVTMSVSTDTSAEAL
T3 sequence (P34972 whole entry): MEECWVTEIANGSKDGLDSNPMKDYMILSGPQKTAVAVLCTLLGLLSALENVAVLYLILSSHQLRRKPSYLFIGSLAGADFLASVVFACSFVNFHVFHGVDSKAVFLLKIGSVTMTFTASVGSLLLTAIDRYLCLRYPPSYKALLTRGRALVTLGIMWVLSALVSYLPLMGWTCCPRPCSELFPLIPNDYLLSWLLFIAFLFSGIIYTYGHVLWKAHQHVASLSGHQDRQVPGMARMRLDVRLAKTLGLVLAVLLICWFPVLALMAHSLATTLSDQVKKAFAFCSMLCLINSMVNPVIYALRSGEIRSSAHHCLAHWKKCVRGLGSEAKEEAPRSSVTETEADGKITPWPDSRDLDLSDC
T1 sequence (P21554 whole entry): as the sequence (P21554 whole entry) above
T4 sequence (P47746 whole entry): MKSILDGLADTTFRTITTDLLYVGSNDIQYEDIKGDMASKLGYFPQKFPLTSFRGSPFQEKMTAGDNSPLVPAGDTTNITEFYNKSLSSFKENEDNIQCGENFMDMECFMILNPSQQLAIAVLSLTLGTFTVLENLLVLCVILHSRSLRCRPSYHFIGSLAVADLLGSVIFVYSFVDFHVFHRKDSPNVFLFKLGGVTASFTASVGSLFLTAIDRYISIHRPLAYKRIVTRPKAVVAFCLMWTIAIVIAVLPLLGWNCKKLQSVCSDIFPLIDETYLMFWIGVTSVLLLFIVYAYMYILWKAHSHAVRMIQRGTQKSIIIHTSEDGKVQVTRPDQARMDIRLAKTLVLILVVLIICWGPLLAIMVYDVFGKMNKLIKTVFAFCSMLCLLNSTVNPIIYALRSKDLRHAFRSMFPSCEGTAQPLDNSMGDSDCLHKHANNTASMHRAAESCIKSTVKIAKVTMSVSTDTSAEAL

## CC1(C)C(=O)N(c2ccc(C#N)c(C(F)(F)F)c2)C(=O)N1Cc1ccccc1NC(=O)Nc1ccc(S(N)(=O)=O)cc1 [Example 1, 4-(3-{2-[3-(4-Cyano-3-trifluoromethylphenyl)-5,5-dimethyl-2,4-dioxo-imidazolidin-1-ylmethyl]phenyl}ureido)benzenesulfonamide]
[1]; [3H]-SR141716A 0.5 nM, Ki from IC50 and Kd by Cheng-Prusoff, average of double determination, read-out: hCB1R, Bindung Ki
  Ki: 20 nM
[2]; [5]
  IC50: 24 nM
[3]
  IC50: > 10000 nM

## COC(=O)c1ccc(NC(=O)Nc2ccccc2CN2C(=O)N(c3ccc(C#N)c(C(F)(F)F)c3)C(=O)C2(C)C)cc1 [Example 3, methyl 4-(3-{2-[3-(4-cyano-3-trifluoromethylphenyl)-5,5-dimethyl-2,4-dioxoimidazolidin-1-ylmethyl]phenyl}ureido)benzoate]
[1]
  Ki: 11 nM
[2]; hCB1R: FLIPR, IC50, recombinant HEK293 cells expressing CB1 and G-protein
  IC50: 19 nM
[3]; recombinant HEK293 cells expressing CB2 and G-protein, intracellular Ca2+ change after reference agonist, 20 min preincubation, read-out: hCB2R: FLIPR, IC50
  IC50: > 10000 nM

## CCOc1ccc(NC(=O)Nc2ccccc2CN2C(=O)N(c3ccc(C#N)c(C(F)(F)F)c3)C(=O)C2(C)C)cc1 [Example 10, 1-{2-[3-(4-cyano-3-trifluoromethylphenyl)-5,5-dimethyl-2,4-dioxoimidazolidin-1-ylmethyl]phenyl}-3-(4-ethoxyphenyl)urea]
[2]; [5]
  IC50: 53 nM
[3]
  IC50: > 10000 nM

## CCCCCCC(C)(C)c1ccc([C@@H]2C[C@H](O)CC[C@H]2CCCO)c(O)c1 [CP55.940]
[4]
  fall in the body temperature: 5-6 °C
